Data: patent publication US6727066B2, “Genes expressed in treated human C3A liver cell cultures” (Incyte Corporation, priority 2000, dated 2004)

Tested on: human C3A liver cell cultures
Assay: Microarray differential expression of cDNAs in treated human C3A liver cell cultures
Type: cell-based
Conditions: change vs untreated C3A cells
Excerpt: Incyte clones represent template sequences derived from the LIFESEQ GOLD assembled human sequence database (Incyte Genomics). In cases where more than one clone was available for a particular template, the 5′-most clone in the template was used on the microarray. The GENEALBUM GEM series 1-6 microarrays (Incyte Genomics) contain 52,616 array elements which represent 17,472 annotated clusters and 35,144 unannotated clusters. The HUMAN GENOME GEM series 1-3 microarrays (Incyte Genomics) contain 28,626 array elements which represent 10,068 annotated clusters and 18,558 unannotated clusters. For the UNIGEM series microarrays (Incyte Genomics), Incyte clones were mapped to non-redundant Unigene clusters (Unigene database (build 46), NCBI; Shuler (1997) J Mol Med 75:694-698), and the 5′ clone with the strongest BLAST alignment (at least 90% identity and 100 bp overlap) was chosen, verified, and used in the construction of the microarray. The UNIGEM V microarray (Incyte Genomics) contains 7075 array elements which represent 4610 annotated genes and 2,184 unannotated clusters.
To construct microarrays, cDNAs were amplified from bacterial cells using primers complementary to vector sequences flanking the cDNA insert. […] Amplified cDNAs were then purified using […]-400 columns (APB). Purified cDNAs were immobilized on polymer-coated glass slides. Glass microscope slides (Corning, Corning N.Y.) were cleaned by ultrasound in 0.1% SDS and acetone, with extensive distilled water washes between and after treatments. Glass slides were etched in 4% hydrofluoric acid (VWR Scientific Products, West Chester Pa.), washed thoroughly in distilled water, and coated with 0.05% aminopropyl silane (Sigma Aldrich) in 95% ethanol. Coated slides were cured in a 110° C. oven. cDNAs were applied to the coated glass substrate using a procedure described in U.S. Pat. No. 5,807,522. One microliter of the cDNA at an average concentration of 100 ng/ul was loaded into the open capillary printing element by a high-speed robotic apparatus which then deposited about 5 nl of cDNA per slide.
Microarrays were UV-crosslinked using a […] UV-crosslinker (Stratagene), and then washed at room temperature once in 0.2% SDS and three times in distilled water. Non-specific binding sites were blocked by incubation of microarrays in 0.2% casein in phosphate buffered saline (Tropix, Bedford Mass.) for 30 minutes at 60° C. followed by washes in 0.2% SDS and distilled water as before.
Early confluent C3A cells (ATTC, Manassas Va.) were treated with captopril (0.5, 2, 48, and 60 μg/ml) for 1, 3, and 6 hours. Early confluent C3A cells were treated with enalapril (0.5, 2, 48, and 60 μg/ml) for 1, 3, and 6 hours. Early confluent C3A cells were treated with LY294002 (0.5, 2, 15, and 25 μg/ml) for 1, 3, and 6 hours. Early confluent C3A cells were starved of insulin for 3 days prior to treatment, then treated with LY294002 (10 μM) for 2, 24, 36, and 72 hours in the presence of insulin. Early confluent C3A cells were treated with DES (1, 10, and 100 μM) for 1, 3, and 6 hours. Early confluent C3A cells were treated with dexamethasone (1 and 20 μM) for 0, 2, 6, and 24 hours. Early confluent C3A cells were treated with MCA (0.5 and 10 μM) for 2, 6, and 24 hours. In all cases mRNA from untreated early confluent cells were prepared in parallel as described below.
Cells were harvested and lysed in 1 ml of TRIZOL reagent (5×10^6 cells/ml; Life Technologies). The lysates were vortexed thoroughly and incubated at room temperature for 2-3 minutes and extracted with 0.5 ml chloroform. The extract was mixed, incubated at room temperature for 5 minutes, and centrifuged at 15,000 rpm for 15 minutes at 4° C. The aqueous layer was collected and an equal volume of isopropanol was added.

## C[C@H](CS)C(=O)N1CCC[C@H]1C(=O)O [Captopril]
  expression level of cDNA clone 63038: −3.16
  expression level of cDNA clone 118501: 4.36
  expression level of cDNA clone 160822: 2.5
  expression level of cDNA clone 211389: −2.52
  expression level of cDNA clone 630625: 2.81
  expression level of cDNA clone 1315663: −2.84
  expression level of cDNA clone 1368834: 2.47
  expression level of cDNA clone 1379063: −4
  expression level of cDNA clone 1381654: 1.57
  expression level of cDNA clone 1448718: −3.93
  expression level of cDNA clone 1519431: 2.36
  expression level of cDNA clone 1559756: 1.56
  expression level of cDNA clone 1619292: −4.3
  expression level of cDNA clone 1696224: 3.28
  expression level of cDNA clone 1711151: 3.05
  expression level of cDNA clone 1846209: 1.81
  expression level of cDNA clone 1930235: 3.25
  expression level of cDNA clone 1998269: 2.99
  expression level of cDNA clone 2055569: −3.33
  expression level of cDNA clone 2055867: −2.61
  expression level of cDNA clone 2123516: 3.89
  expression level of cDNA clone 2360580: −2.71
  expression level of cDNA clone 2446289: −2.15
  expression level of cDNA clone 2757583: 4.03
  expression level of cDNA clone 2769888: −2.01
  expression level of cDNA clone 2820337: 2.29
  expression level of cDNA clone 2884613: 2.46
  expression level of cDNA clone 2912637: −2.38
  expression level of cDNA clone 2921991: −5.21
  expression level of cDNA clone 2933775: 5.14
  expression level of cDNA clone 3225977: 2.89
  expression level of cDNA clone 3240708: 2.02
  expression level of cDNA clone 3381870: 2.62
  expression level of cDNA clone 3679667: −2.09
  expression level of cDNA clone 3815422: −3.78
  expression level of cDNA clone 4107126: 2.88

## CCOC(=O)C(C)(C)Oc1ccc(Cl)cc1 [Clofibrate]
  expression level of cDNA clone 63038: −3.95
  expression level of cDNA clone 86390: −2.83
  expression level of cDNA clone 118501: 4.87
  expression level of cDNA clone 280932: −2.8
  expression level of cDNA clone 341884: −2.32
  expression level of cDNA clone 348143: 2.11
  expression level of cDNA clone 407032: −3.05
  expression level of cDNA clone 460779: 2.26
  expression level of cDNA clone 630625: 2.53
  expression level of cDNA clone 758192: 3.11
  expression level of cDNA clone 818192: 2.87
  expression level of cDNA clone 1308112: 2.19
  expression level of cDNA clone 1315663: −3.18
  expression level of cDNA clone 1379063: −2.38
  expression level of cDNA clone 1448718: −2.95
  expression level of cDNA clone 1464613: −2.39
  expression level of cDNA clone 1511658: −3.56
  expression level of cDNA clone 1519683: −2.12
  expression level of cDNA clone 1559665: −4.058
  expression level of cDNA clone 1619292: −3.07
  expression level of cDNA clone 1696224: 11.91
  expression level of cDNA clone 1705208: 4.2
  expression level of cDNA clone 1711151: 2.4
  expression level of cDNA clone 1838114: −2.65
  expression level of cDNA clone 1845046: −2.5
  expression level of cDNA clone 1846463: 3.62
  expression level of cDNA clone 1890791: 2.7
  expression level of cDNA clone 1920215: −2.59
  expression level of cDNA clone 1922468: 3.03
  expression level of cDNA clone 1926883: 2.94
  expression level of cDNA clone 1930235: 2.73
  expression level of cDNA clone 1958226: −2.52
  expression level of cDNA clone 1966517: −2.8
  expression level of cDNA clone 1969563: 3.78
  expression level of cDNA clone 1998269: 2.7
  expression level of cDNA clone 2042056: 2.5
  expression level of cDNA clone 2055569: −2.76
  expression level of cDNA clone 2123516: 8.29
  expression level of cDNA clone 2273944: 2.48
  expression level of cDNA clone 2278688: −2.37
  expression level of cDNA clone 2352645: 3.77
  expression level of cDNA clone 2365335: −2.67
  expression level of cDNA clone 2382192: −2.54
  expression level of cDNA clone 2470485: −2.45
  expression level of cDNA clone 2740665: −2.54
  expression level of cDNA clone 2757583: 2.8
  expression level of cDNA clone 2769888: −2.79
  expression level of cDNA clone 2884613: 2.54
  expression level of cDNA clone 2890336: −2.38
  expression level of cDNA clone 2921991: −3.1
  expression level of cDNA clone 2933775: 4
  expression level of cDNA clone 2957205: 2.94
  expression level of cDNA clone 2999855: 2.4
  expression level of cDNA clone 3038508: 2.57
  expression level of cDNA clone 3136857: −3.24
  expression level of cDNA clone 3222802: 2.71
  expression level of cDNA clone 3380034: −3.15
  expression level of cDNA clone 3494714: −2.53
  expression level of cDNA clone 4066764: −2.3
  expression level of cDNA clone 4087621: −3.55
  expression level of cDNA clone 4110976: 2.18
  expression level of cDNA clone 4246966: 8.12
  expression level of cDNA clone 4287327: −3.47
  expression level of cDNA clone 4721130: 4.25
  expression level of cDNA clone 4795635: −2.38
  expression level of cDNA clone 5047895: −2.44
  expression level of cDNA clone 5077219: −2.63
  expression level of cDNA clone 5398014: −2.67
  expression level of cDNA clone 5398701: −3.55
  expression level of cDNA clone 5541949: 2.38

## CC/C(=C(/CC)c1ccc(O)cc1)c1ccc(O)cc1 [DES, Diethylstilbestrol]
  expression level of cDNA clone 60123: 2.6
  expression level of cDNA clone 172023: 2.85
  expression level of cDNA clone 437481: 2.24
  expression level of cDNA clone 443991: 2.62
  expression level of cDNA clone 510056: 2.73
  expression level of cDNA clone 891322: 3.81
  expression level of cDNA clone 970905: 2.25
  expression level of cDNA clone 1272483: 2.51
  expression level of cDNA clone 1326255: −2.7
  expression level of cDNA clone 1956982: −2.13
  expression level of cDNA clone 2055867: 2.97
  expression level of cDNA clone 2241825: −2.39
  expression level of cDNA clone 2311213: −2.34
  expression level of cDNA clone 2545486: −2.49
  expression level of cDNA clone 2550767: 2.1
  expression level of cDNA clone 2956444: 2.1
  expression level of cDNA clone 3222802: 2.4
  expression level of cDNA clone 4019706: 2.99
  expression level of cDNA clone 4287327: 2.66
  expression level of cDNA clone 4715924: −2.21
  expression level of cDNA clone 5293028: −2.3
  expression level of cDNA clone 5399371: −2.63
Table row r18
  expression level of cDNA clone 293477: 2.83
Table row r23
  expression level of cDNA clone 293477: 2
